According to BigSolDB 2.1:

O=C(Cn1cnnn1)N[C@@H]1C(=O)N2C(C(=O)O)=C(CSc3nncs3)CS[C@H]12
solubility (mole fraction)
Conditions | 278.15 K | 283.15 K | 288.15 K | 293.15 K | 298.15 K | 303.15 K | 308.15 K | 313.15 K
in acetone | 0.00153 | 0.00156 | 0.00161 | 0.00165 | 0.0017 | 0.00184 | 0.00193 | 0.0023
in acetonitrile | 0.000124 | 0.000137 | 0.000159 | 0.000164 | 0.000184 | 0.000219 | 0.000253 | 0.000284
in ethanol | 4.85e-05 | 5.92e-05 | 6.49e-05 | 7.26e-05 | 9.45e-05 | 0.000104 | 0.000122 | 0.000152
in ethyl acetate | 0.000188 | 0.000217 | 0.000242 | 0.0003 | 0.000342 | 0.000371 | 0.000433 | 0.00053
in isopropanol | 6.43e-05 | 6.82e-05 | 7.37e-05 | 8.59e-05 | 0.000104 | 0.000114 | 0.000134 | 0.000152
in methanol | 1.2e-05 | 1.5e-05 | 1.92e-05 | 2.43e-05 | 3.26e-05 | 4.34e-05 | 5.48e-05 | 6.84e-05
in water | 1.04e-05 | 1.27e-05 | 1.64e-05 | 1.92e-05 | 2.51e-05 | 3.24e-05 | 4.27e-05 | 5.32e-05
